In US7820825B2, “N-substituted-azacyclylamines as histamine-3 antagonists” (Wyeth LLC, priority 2006, dated 2010) one finds melting point data, which are given here for two compounds.

Structures are written as SMILES.

With `Cn1cc(Cc2ccc(C(=O)N3CC[C@H](N4CCCC4)C3)cc2)c2ccccc21` [Example 229, (3′S)-1-{4-[(1-methyl-1H-indol-3-yl)methyl]benzoyl}-1,3′-bipyrrolidine], the melting point lay within 73 to 78 °C.

Regarding `CN(C)[C@H]1CCN(C(=O)c2ccc(Cc3cn(C)c4ccccc34)cc2)C1` [Example 230, (3S)-N,N-dimethyl-1-{4-[(1-methyl-1H-indol-3-yl)methyl]benzoyl}pyrrolidin-3-amine], the melting point lay in the range of 101 to 105 °C.

What is called melting point is the temperature, or range, at which the solid turns liquid.
